Earlier results on one compound are cited in US6054456A, “Substituted piperazine derivatives” (Merck Sharp & Dohme Ltd., priority 1995, dated 2000).

Series [1] relates to human 5-HT1Dα and 5-HT1Dβ receptor subtypes. The following applies: cf. WO-A-91/171174, Table 1.
The conditions of series [2]: humans, therapeutic doses.

As for `CNS(=O)(=O)Cc1ccc2[nH]cc(CCN(C)C)c2c1` [sumatriptan], the “discrimination between the human 5-HT1Dα and 5-HT1Dβ receptor subtypes” value in series [1] was “barely discriminates between the human 5-HT1Dα and 5-HT1Dβ receptor subtypes”. Moreover, the adverse events entry in series [2] is given as “certain adverse cardiovascular events”.
